Laboratory results reported in ChEMBL document CHEMBL4507287, “Data for DCP probe MRL-650” (2021).

Legend:
[1] = target: Mitogen-activated protein kinase 12 (Homo sapiens) (UniProt P53778); settings: Compound concentration 1000.0 nM
[2] = target: Tyrosine-protein kinase CSK (Homo sapiens) (UniProt P41240); settings: Compound concentration 1000.0 nM
[3] = system: Mast/stem cell growth factor receptor Kit (Homo sapiens), P10721 [D816V]; settings: Compound concentration 1000.0 nM
[4] = system: Receptor-type tyrosine-protein kinase FLT3 (Homo sapiens), P36888 [D835Y]; settings: Compound concentration 1000.0 nM
[5] = system: Tyrosine-protein kinase ABL1 (Homo sapiens), P00519 [F317I]; settings: Compound concentration 1000.0 nM
[6] = target: Serine/threonine-protein kinase Nek5 (Homo sapiens) (UniProt Q6P3R8); settings: Compound concentration 1000.0 nM
Serine/threonine-protein kinase Nek5 (Homo sapiens), sequence (Q6P3R8 whole entry): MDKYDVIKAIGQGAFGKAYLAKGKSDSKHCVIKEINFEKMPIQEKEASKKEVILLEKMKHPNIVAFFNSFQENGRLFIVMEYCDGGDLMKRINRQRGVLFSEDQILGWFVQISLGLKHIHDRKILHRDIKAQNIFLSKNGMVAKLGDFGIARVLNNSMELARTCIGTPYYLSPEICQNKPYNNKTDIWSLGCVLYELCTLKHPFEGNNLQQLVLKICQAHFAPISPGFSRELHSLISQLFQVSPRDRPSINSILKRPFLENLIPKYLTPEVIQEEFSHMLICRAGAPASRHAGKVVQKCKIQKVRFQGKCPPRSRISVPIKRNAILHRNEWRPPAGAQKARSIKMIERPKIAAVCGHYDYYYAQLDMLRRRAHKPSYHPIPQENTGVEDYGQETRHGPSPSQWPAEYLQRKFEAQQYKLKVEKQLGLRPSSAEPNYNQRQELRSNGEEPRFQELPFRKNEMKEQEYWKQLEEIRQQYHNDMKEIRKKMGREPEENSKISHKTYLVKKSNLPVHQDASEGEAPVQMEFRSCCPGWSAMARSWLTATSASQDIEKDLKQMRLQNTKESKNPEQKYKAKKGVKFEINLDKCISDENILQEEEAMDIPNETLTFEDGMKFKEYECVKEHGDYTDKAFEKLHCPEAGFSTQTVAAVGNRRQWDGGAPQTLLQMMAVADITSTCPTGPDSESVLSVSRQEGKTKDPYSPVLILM

[7] = target: 5-hydroxytryptamine receptor 3A (Homo sapiens) (UniProt P46098); settings: Compound concentration 10.0 uM
[8] = target: MAP kinase-activated protein kinase 5 (Homo sapiens) (UniProt Q8IW41); settings: Compound concentration 1000.0 nM
[9] = system: Mast/stem cell growth factor receptor Kit (Homo sapiens), P10721 [V559D,T670I]; settings: Compound concentration 1000.0 nM
Mast/stem cell growth factor receptor Kit (Homo sapiens), P10721 [V559D,T670I], sequence (P10721 whole entry V559D/T670I): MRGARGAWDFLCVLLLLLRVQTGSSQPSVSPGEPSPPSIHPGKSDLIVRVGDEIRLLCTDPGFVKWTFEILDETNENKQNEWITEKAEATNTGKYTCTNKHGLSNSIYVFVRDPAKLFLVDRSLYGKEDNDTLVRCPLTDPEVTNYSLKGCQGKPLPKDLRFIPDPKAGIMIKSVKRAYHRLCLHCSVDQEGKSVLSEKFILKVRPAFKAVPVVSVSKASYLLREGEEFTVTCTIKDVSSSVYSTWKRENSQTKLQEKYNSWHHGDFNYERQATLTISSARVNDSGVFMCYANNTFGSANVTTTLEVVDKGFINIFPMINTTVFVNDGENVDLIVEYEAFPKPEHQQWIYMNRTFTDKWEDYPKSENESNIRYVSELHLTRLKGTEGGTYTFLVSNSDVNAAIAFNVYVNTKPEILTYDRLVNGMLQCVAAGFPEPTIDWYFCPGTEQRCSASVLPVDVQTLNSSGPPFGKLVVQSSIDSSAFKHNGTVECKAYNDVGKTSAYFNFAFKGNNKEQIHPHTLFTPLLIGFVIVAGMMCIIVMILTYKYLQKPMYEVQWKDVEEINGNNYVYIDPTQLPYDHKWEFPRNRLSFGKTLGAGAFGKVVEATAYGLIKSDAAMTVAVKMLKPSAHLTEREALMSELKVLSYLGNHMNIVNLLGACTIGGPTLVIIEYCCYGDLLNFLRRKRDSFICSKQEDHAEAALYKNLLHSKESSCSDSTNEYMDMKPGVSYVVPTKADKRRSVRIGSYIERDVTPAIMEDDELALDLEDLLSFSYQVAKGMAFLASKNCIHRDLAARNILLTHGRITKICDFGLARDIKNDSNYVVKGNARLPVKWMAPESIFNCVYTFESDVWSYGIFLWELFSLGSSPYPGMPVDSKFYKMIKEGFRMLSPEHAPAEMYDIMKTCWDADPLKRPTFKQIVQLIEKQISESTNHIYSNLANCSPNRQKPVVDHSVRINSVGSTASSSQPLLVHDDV

[10] = target: Serine/threonine-protein kinase Sgk2 (Homo sapiens) (UniProt Q9HBY8); settings: Compound concentration 1000.0 nM
[11] = target: Platelet-derived growth factor receptor beta (Homo sapiens) (UniProt P09619); settings: Compound concentration 1000.0 nM
[12] = target: Tyrosine-protein kinase ABL2 (Homo sapiens) (UniProt P42684); settings: Compound concentration 1000.0 nM
[13] = target: Serine/threonine-protein kinase MRCK gamma (Homo sapiens) (UniProt Q6DT37); settings: Compound concentration 1000.0 nM
[14] = target: Tyrosine-protein kinase JAK1 (Homo sapiens) (UniProt P23458); settings: Compound concentration 1000.0 nM
[15] = system: Tyrosine-protein kinase ABL1 (Homo sapiens), P00519 [F317L]; settings: Compound concentration 1000.0 nM
[16] = target: Proto-oncogene tyrosine-protein kinase ROS (Homo sapiens) (UniProt P08922); settings: Compound concentration 1000.0 nM
[17] = target: Myosin light chain kinase 2, skeletal/cardiac muscle (Homo sapiens) (UniProt Q9H1R3); settings: Compound concentration 1000.0 nM
[18] = target: Casein kinase II subunit alpha' (Homo sapiens) (UniProt P19784); settings: Compound concentration 1000.0 nM
[19] = target: Dual specificity mitogen-activated protein kinase kinase 4 (Homo sapiens) (UniProt P45985); settings: Compound concentration 1000.0 nM
Dual specificity mitogen-activated protein kinase kinase 4 (Homo sapiens), sequence (P45985 whole entry): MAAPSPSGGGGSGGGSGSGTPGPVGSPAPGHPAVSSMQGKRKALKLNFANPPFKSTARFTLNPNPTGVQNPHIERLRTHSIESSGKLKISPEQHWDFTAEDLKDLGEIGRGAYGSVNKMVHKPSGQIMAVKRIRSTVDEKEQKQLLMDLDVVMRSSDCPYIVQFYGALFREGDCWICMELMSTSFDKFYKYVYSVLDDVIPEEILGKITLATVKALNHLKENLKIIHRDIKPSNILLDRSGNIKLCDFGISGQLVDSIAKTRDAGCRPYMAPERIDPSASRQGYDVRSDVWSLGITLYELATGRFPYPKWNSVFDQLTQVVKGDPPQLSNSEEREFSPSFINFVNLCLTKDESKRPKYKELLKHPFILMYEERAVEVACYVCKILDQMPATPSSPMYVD

[20] = target: Serine/threonine-protein kinase ICK (Homo sapiens) (UniProt Q9UPZ9); settings: Compound concentration 1000.0 nM
[21] = target: Vascular endothelial growth factor receptor 1 (Homo sapiens) (UniProt P17948); settings: Compound concentration 1000.0 nM
[22] = target: MAP kinase-interacting serine/threonine-protein kinase 1 (Homo sapiens) (UniProt Q9BUB5); settings: Compound concentration 1000.0 nM
[23] = target: Citron Rho-interacting kinase (Homo sapiens) (UniProt O14578); settings: Compound concentration 1000.0 nM
[24] = target: Muscarinic acetylcholine receptor M4 (Homo sapiens) (UniProt P08173); settings: Compound concentration 10.0 uM
[25] = target: Dual specificity mitogen-activated protein kinase kinase 3 (Homo sapiens) (UniProt P46734); settings: Compound concentration 1000.0 nM
[26] = target: Phosphatidylinositol 4-phosphate 5-kinase type-1 gamma (Homo sapiens) (UniProt O60331); settings: Compound concentration 1000.0 nM
[27] = target: Dual specificity mitogen-activated protein kinase kinase 2 (Homo sapiens) (UniProt P36507); settings: Compound concentration 1000.0 nM
Dual specificity mitogen-activated protein kinase kinase 2 (Homo sapiens), sequence (P36507 whole entry): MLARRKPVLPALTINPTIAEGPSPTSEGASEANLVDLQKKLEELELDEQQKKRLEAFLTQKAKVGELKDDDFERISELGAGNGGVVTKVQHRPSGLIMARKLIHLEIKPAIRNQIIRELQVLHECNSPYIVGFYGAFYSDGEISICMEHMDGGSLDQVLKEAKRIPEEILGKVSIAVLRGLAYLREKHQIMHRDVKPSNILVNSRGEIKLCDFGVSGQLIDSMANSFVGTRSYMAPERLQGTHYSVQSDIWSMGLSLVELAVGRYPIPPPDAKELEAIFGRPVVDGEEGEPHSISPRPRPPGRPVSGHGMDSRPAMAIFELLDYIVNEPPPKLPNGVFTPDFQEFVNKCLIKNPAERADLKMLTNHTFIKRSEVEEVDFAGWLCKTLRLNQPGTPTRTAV

[28] = target: Mitogen-activated protein kinase 7 (Homo sapiens) (UniProt Q13164); settings: Compound concentration 1000.0 nM
[29] = system: Tyrosine-protein kinase ABL1 (Homo sapiens), P00519 [Q252H]; settings: Compound concentration 1000.0 nM
[30] = target: Serine/threonine-protein kinase STK11 (Homo sapiens) (UniProt Q15831); settings: Compound concentration 1000.0 nM
[31] = target: Tyrosine-protein kinase SYK (Homo sapiens) (UniProt P43405); settings: Compound concentration 1000.0 nM
[32] = target: Uncharacterized serine/threonine-protein kinase SBK3 (Homo sapiens) (UniProt P0C264); settings: Compound concentration 1000.0 nM
[33] = target: Serine/threonine-protein kinase 26 (Homo sapiens) (UniProt Q9P289); settings: Compound concentration 1000.0 nM
[34] = target: Serine/threonine-protein kinase WNK4 (Homo sapiens) (UniProt Q96J92); settings: Compound concentration 1000.0 nM
[35] = target: Phosphatidylinositol 4-phosphate 5-kinase type-1 alpha (Homo sapiens) (UniProt Q99755); settings: Compound concentration 1000.0 nM
Phosphatidylinositol 4-phosphate 5-kinase type-1 alpha (Homo sapiens), sequence (Q99755 whole entry): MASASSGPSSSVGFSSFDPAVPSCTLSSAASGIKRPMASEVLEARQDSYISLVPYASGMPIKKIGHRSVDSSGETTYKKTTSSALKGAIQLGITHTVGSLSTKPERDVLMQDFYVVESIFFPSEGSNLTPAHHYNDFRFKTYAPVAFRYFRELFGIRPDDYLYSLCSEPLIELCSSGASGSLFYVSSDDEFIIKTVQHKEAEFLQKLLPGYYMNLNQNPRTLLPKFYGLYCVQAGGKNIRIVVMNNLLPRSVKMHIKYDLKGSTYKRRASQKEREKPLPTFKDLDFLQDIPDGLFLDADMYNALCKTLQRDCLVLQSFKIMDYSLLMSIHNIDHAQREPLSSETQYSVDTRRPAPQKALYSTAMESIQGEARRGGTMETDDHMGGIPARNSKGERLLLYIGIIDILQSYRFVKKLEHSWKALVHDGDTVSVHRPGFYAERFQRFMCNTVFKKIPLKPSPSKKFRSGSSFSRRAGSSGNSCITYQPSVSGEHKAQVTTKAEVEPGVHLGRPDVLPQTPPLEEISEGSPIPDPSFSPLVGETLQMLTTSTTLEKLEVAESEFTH

[36] = target: Ephrin type-A receptor 4 (Homo sapiens) (UniProt P54764); settings: Compound concentration 1000.0 nM
[37] = target: Serine/threonine-protein kinase mTOR (Homo sapiens) (UniProt P42345); settings: Compound concentration 1000.0 nM
[38] = target: MAP/microtubule affinity-regulating kinase 3 (Homo sapiens) (UniProt P27448); settings: Compound concentration 1000.0 nM
[39] = target: Protein kinase C epsilon type (Homo sapiens) (UniProt Q02156); settings: Compound concentration 1000.0 nM
[40] = target: Mitogen-activated protein kinase kinase kinase 5 (Homo sapiens) (UniProt Q99683); settings: Compound concentration 1000.0 nM
Mitogen-activated protein kinase kinase kinase 5 (Homo sapiens), sequence (Q99683 whole entry): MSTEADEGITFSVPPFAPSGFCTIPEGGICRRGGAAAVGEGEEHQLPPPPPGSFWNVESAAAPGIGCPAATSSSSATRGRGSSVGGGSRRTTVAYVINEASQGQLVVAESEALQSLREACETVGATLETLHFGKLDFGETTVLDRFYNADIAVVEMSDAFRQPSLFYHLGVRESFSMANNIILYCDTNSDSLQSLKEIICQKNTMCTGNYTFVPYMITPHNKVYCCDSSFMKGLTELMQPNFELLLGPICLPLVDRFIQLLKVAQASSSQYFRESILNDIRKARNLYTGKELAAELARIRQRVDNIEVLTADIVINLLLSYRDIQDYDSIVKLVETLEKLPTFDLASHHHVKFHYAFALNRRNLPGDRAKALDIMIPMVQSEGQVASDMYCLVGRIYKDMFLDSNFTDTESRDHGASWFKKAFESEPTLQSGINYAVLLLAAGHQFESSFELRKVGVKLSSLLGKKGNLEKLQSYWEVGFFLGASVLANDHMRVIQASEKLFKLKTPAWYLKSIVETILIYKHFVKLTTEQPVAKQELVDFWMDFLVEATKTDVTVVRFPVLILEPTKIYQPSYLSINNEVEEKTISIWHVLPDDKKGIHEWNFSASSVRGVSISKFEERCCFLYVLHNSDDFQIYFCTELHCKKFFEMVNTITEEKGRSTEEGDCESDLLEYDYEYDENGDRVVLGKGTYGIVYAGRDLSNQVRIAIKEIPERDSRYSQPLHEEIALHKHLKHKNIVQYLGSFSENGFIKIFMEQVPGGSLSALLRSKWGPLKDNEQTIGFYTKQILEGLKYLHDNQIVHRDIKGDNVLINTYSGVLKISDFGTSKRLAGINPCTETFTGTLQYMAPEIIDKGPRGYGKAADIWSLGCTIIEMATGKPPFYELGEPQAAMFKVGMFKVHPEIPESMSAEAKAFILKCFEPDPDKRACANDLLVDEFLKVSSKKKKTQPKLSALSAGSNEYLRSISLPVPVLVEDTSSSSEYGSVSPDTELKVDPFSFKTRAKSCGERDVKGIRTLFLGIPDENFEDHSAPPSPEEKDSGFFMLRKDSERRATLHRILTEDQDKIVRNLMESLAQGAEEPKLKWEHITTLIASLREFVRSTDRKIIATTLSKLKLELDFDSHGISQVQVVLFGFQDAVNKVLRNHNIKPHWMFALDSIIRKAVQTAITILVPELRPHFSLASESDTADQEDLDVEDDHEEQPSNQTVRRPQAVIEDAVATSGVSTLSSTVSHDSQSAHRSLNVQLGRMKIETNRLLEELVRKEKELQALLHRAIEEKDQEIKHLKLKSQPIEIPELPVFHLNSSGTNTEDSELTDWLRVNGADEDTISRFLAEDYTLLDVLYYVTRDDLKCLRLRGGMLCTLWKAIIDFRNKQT

[41] = target: Serine/threonine-protein kinase SIK3 (Homo sapiens) (UniProt Q9Y2K2); settings: Compound concentration 1000.0 nM
[42] = target: Cyclin-dependent kinase 2 (Homo sapiens) (UniProt P24941); settings: Compound concentration 1000.0 nM
[43] = target: Cyclin-dependent kinase 7 (Homo sapiens) (UniProt P50613); settings: Compound concentration 1000.0 nM
Cyclin-dependent kinase 7 (Homo sapiens), sequence (P50613 whole entry): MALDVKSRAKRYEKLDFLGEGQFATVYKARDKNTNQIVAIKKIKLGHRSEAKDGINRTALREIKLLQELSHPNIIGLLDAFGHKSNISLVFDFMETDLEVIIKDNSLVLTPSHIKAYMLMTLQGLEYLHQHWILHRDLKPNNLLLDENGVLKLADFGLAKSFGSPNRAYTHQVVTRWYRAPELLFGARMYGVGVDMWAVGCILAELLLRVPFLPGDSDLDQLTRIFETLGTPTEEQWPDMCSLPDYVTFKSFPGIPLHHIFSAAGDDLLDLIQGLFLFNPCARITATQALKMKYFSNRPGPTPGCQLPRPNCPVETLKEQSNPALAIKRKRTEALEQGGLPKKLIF

[44] = target: Insulin receptor (Homo sapiens) (UniProt P06213); settings: Compound concentration 1000.0 nM
[45] = target: Hormonally up-regulated neu tumor-associated kinase (Homo sapiens) (UniProt P57058); settings: Compound concentration 1000.0 nM

Mast/stem cell growth factor receptor Kit (Homo sapiens), P10721 [D816V], sequence (P10721 whole entry D816V): as the sequence (P10721 whole entry V559D/T670I) above, with D559V, I670T, D816V counted along it

CC(=O)c1c(NS(C)(=O)=O)c2cc(-c3ccc(Cl)cc3)c(-c3ccc(Cl)cc3Cl)nc2n(C)c1=O [MRL-CB1-NC]
inactive: residual activity [1] 100% | residual activity [2] 100% | residual activity [3] 100% | residual activity [4] 95% | residual activity [5] 85% | residual activity [6] 100% | inhibition [7] 3.2% | residual activity [8] 89% | residual activity [9] 100% | residual activity [10] 92% | residual activity [11] 95% | residual activity [12] 100% | residual activity [13] 100% | residual activity [14] 76% | residual activity [15] 75% | residual activity [16] 100% | residual activity [17] 98% | residual activity [18] 100% | residual activity [19] 89% | residual activity [20] 77% | residual activity [21] 100% | residual activity [22] 100% | residual activity [23] 96% | inhibition [24] 16.2% | residual activity [25] 96% | residual activity [26] 100% | residual activity [27] 100% | residual activity [28] 92% | residual activity [29] 100% | residual activity [30] 100% | residual activity [31] 100% | residual activity [32] 95% | residual activity [33] 84% | residual activity [34] 96% | residual activity [35] 97% | residual activity [36] 98% | residual activity [37] 100% | residual activity [38] 100% | residual activity [39] 96% | residual activity [40] 85% | residual activity [41] 100% | residual activity [42] 100% | residual activity [43] 82% | residual activity [44] 73% | residual activity [45] 100%

CC(=O)Nc1c(C(C)=O)c(=O)n(C)c2nc(-c3ccc(Cl)cc3Cl)c(-c3ccc(Cl)cc3)cc12 [NAPHTHYRIDINONE]
active: residual activity [30] 43% | residual activity [39] 48%
inactive: residual activity [1] 100% | residual activity [2] 100% | residual activity [3] 100% | residual activity [4] 100% | residual activity [5] 94% | residual activity [6] 100% | inhibition [7] 5.67% | residual activity [8] 100% | residual activity [9] 100% | residual activity [10] 100% | residual activity [11] 100% | residual activity [12] 100% | residual activity [13] 100% | residual activity [14] 100% | residual activity [15] 100% | residual activity [16] 99% | residual activity [17] 100% | residual activity [18] 100% | residual activity [19] 100% | residual activity [20] 100% | residual activity [21] 100% | residual activity [22] 100% | residual activity [23] 100% | inhibition [24] 0.711% | residual activity [25] 86% | residual activity [26] 100% | residual activity [27] 100% | residual activity [28] 100% | residual activity [29] 100% | residual activity [31] 96% | residual activity [32] 100% | residual activity [33] 87% | residual activity [34] 100% | residual activity [35] 100% | residual activity [36] 96% | residual activity [37] 100% | residual activity [38] 100% | residual activity [40] 100% | residual activity [41] 100% | residual activity [42] 100% | residual activity [43] 100% | residual activity [44] 100% | residual activity [45] 100%
